According to PubChem BioAssay AID488823 (NMMLSC, 2010):

Tested on: S. cerevisiae LAP4-GFP strain, flow cytometry fluorescence
Experiment: yeast LAP4 reporter analogs, concentration series – cell-based, cherry pick 3, flow cytometry, SAR follow-up (AID 488823)

`Cc1ccc2c(Cl)cc(Cl)c(O)c2n1` showed an EC50 of 5.38 µM.
